# US6849645B2, “Method of increased bioavailability of nutrients and pharmaceutical preparations with tetrahydropiperine and its analogues and derivatives” (priority 2000, dated 2005)
# Columns and labels:
# Earthworms = assay: Albendazole induced anthelmintic activity on earthworms (paralysis and death); format: in vivo, earthworm
# Method: An experiment to see how tetrahydropiperine enhances the skin permeability of anthelmintic drugs such as albendazole on intestinal worms was conducted. However, as a preliminary study towards this, tests on earthworms were conducted.
# Earthworms were obtained from the Al Ameen College of Pharmacy, Bangalore. Albendazole (Zentel) was obtained from Smith Kline Beecham Pharmaceuticals, Bangalore. The aqueous test solution contained tetrahydropiperine (Tetraperine™, A proprietary product of Sabinsa Corporation, USA) of 0.1% and 0.2% w/v suspended in 0.25% w/v sodium carboxy methyl cellulose.
# 1. Effect of Albendazole: Earth worms of similar length and weight were divided into three groups of six worms each. […] The time of onset of paralysis was noted and the death of the worms were observed and recorded as above.
# [1] = format: in vitro ADME, mouse
# Method: The drug (100 ug/ml) was applied with 0.1% (active sample) or without (control sample) of THP in the donor compartment. Subsequently the absorbencies of the fluid in the receptor compartment for the presence of BMDP and THP were measured in time intervals of 5, 10, 15, 20, 30, 45 and 60 minutes.
# Franz diffusion cell was utilized in the experiment. This is an in vitro set-up prepared from the graft of the abdominal skin of mouse to evaluate absorption of drugs and nutrients through the skin. The Franz diffusion cell contains Donor and Receptor compartments. The test drug, BMDP, with or without tetrahydropiperine (Control) was applied on one side of the skin (Donor compartment). The drug's transport to the Receptor side of the skin was estimated by UV method at pre-determined time intervals. […]
# The hydrated skin was mounted on Franz diffusion cell with shaved surface facing the donor compartment. […] Absorbance of each sample was measured by UV spectrophotometer at the wavelength of 256 nm. • b. […] Absorbance of each sample was measured by UV spectrophotometer at the wavelength of 256 nm.
# UV absorption Spectra of BMDP solutions show absorption at 238 nm when prepared in saline with tween 20 solution. […] Tetrahydropiperine gave absorbance at 228 nm and 275 nm. • 2. The absorbance of tetrahydropiperine was minimum at 256 nm while it was good for BMDP. […]
# [2] = test system: tobacco cut worm, Spodoptera litura F.; assay: whole plant or invertebrate; settings: Spodoptera litura, in Nicotiana tabacum, 48 h, read-out: PERCENT MORTALITY (Mean of 4 replications)
# Method: The tetrahydropiperine was tested against tobacco cut worm, Spodoptera litura F. to determine its possible increased kill rate when used with Fenvalerate—a synthetic pyrethroid.
# • a. Preparation of test solution—0.5 g of the test product was dissolved in 1 ml of Ethanol and made up to 100 ml in standard volumetric flask using suitable emulsifier. This solution contains 5000 ppm a.i. (0.5 percent). Further, serial dilution was made to get 0.25, 0.125 and 0.0625% of the test product. To each of these test solutions, Fenvalerate was added to get 250 ppm of Fenvalerate a.i. in the final volume. For comparison 0.5 percent of Tetrahydropiperine, Ethanol 1.0 percent solution and 250 ppm a.i. of Fenvalerate was used. • b. Bioassay—Laboratory reared 7 day old larvae of tobacco cut worm, Spodoptera litura were used in the experiment. After a series of preliminary tests the concentrations chosen for the experiment were 0.5, 0.25, 0.125 and 0.0625 percent tetrahydropiperine. Fresh castor leaves were dipped for 30 seconds in above concentrations of test and standard compounds and blank solutions. After proper drying, the treated leaves were transferred to plastic containers. To each container 5 larvae were released. This was repeated four times so as to have 20 larvae for each concentration. Larvae in control set were fed with leaves dipped in water. Observations were recorded for larval mortality after 48 hours of exposure. Results
# [3] = Franz diffusion cell, in vitro transdermal permeation of Forskolin with or without tetrahydropiperine; format: in vitro ADME, rat
# Method: In vitro permeation studies of Forskholin, a diterpenoid compound which has various therapeutic effects (Bronchodilation—used in Asthma, prevents platelet aggregation, anti hypertensive, anti glaucoma and anti-inflammatory) was carried out. Fabricated Franz diffusion cells of capacity 67 and 69 ml were used for the study. Freshly excised rat abdominal skin was used for the permeation studies.
# Solutions Used in the Study • a) 2.5% Forskolin in methanol. • b) 0.05% Tetrahydropiperine in 2.5% Forskolin in methanol. • c) 0.1% Tetrahydropiperine in 2.5% Forskolin in methanol. Procedure
# Freshly excised rat abdominal […] was mounted on the Franz diffusion Cell, the outer layer of the skin facing the donor compartment. The receptor fluid was maintained at 35° C. using a thermostatic magnetic stirrer.
# The study was conducted by replacing the medium in the receptor compartment with methanol instead of phosphate buffer. In both the receptor and donor compartment methanol was used as the medium in the permeation studies.
# (§1) In the donor compartment 2 ml methanol containing 50 mg of Forskolin and tetrahydropiperine (5% of Forskolin conc.) was taken. Receptor compartment consisted of 69 ml of methanol maintained at 35° C. Permeation study was carried out for a period of 1 hr. Samples were withdrawn at 15, 30 and 60 minutes intervals and the amount of Forskholin present was analyzed by HPLC.
# as §1, with “Forskholin” for “Forskolin and tetrahydropiperine (5% of Forskolin conc.)”, “65” for “69”, “hour.” for “hr.”
compound,measurement,setting,value
"CCCSc1ccc2nc(NC(=O)OC)[nH]c2c1 [Albendazole, reference compound]","Time taken in minutes (Mean ± SEM), Paralysis",Earthworms; Albendazole 0.2% w/v alone,99.0 ± 3.93 min
same,time until anthelmintic activity,Earthworms; albendazole 0.1%,> 2 h
same,time until anthelmintic activity,Earthworms; albendazole 0.2%,≤ 2 h
"CCC(=O)OCC(=O)[C@@]1(OC(=O)CC)[C@@H](C)C[C@H]2[C@@H]3CCC4=CC(=O)C=C[C@]4(C)[C@@]3(F)[C@@H](O)C[C@@]21C [BMDP, Betamethasone dipropionate]",amount of drug (BMDP) diffused in control,[1],undetectable
"CC(C)C(C(=O)OC(C#N)c1cccc(Oc2ccccc2)c1)c1ccc(Cl)cc1 (centres unmarked) [Fenvalerate, reference compound]",mortality at 250 ppm,[2],55%
"C=C[C@@]1(C)CC(=O)[C@]2(O)[C@@]3(C)[C@@H](O)CCC(C)(C)[C@@H]3[C@H](O)[C@H](OC(C)=O)[C@@]2(C)O1 [Forskolin, reference compound]",Forskolin Release Control,"[3]; Forskolin 50 mg in methanol without THP, 15 min",1.28
same,Forskolin Release Control,"[3]; Forskolin without THP, 30 min",4.05
same,Forskolin Release Control,"[3]; Forskolin without THP, 60 min",8.45
